From patent US20060029644A1, “In vitro biochemical reactions with free anhydrous D-ribose” (priority 2004, published 2006)
Entries after “also recorded” stand apart in the source; their conditions may differ. Each block holds one compound with its values, some of them ahead of it.

Columns and labels:
[1] = taken in 20 grams or less a day; cited from earlier work
[2] = stability of the powder on heating; assay type: physicochemical; details: for stability of the powder when heated: 150° F., heated alone or mixed with each other
solubility in water = assay type: physicochemical

Structure (SMILES): O=C[C@H](O)[C@H](O)[C@H](O)CO [anhydrous D-ribose]
toxicity [1]: extremely low toxicity
temperature to which the powder can be heated without losing its powdery form [2]: < 120 ° F.
stability of the powder when heated [2]: unstable

Structure (SMILES): O=C(CO)[C@@H](O)[C@H](O)[C@H](O)CO [fructose, reference compound]
stability of the powder when heated [2]: remain powders

Structure (SMILES): OC[C@H]1O[C@@H](O[C@H]2[C@H](O)[C@@H](O)C(O)O[C@@H]2CO)[C@H](O)[C@@H](O)[C@H]1O (stereo partly drawn) [lactose, reference compound]
stability of the powder when heated [2]: remain powders

The next lines start with results.

solubility in water (solubility in water; listed as monohydrate): very soluble in water
stability compared with the anhydrous powder ([2]; especially with water, sugars and some consumable monohydrates): far more stable
Structure (SMILES): O.O=C[C@H](O)[C@H](O)[C@H](O)CO [ribose monohydrate, D-ribose monohydrate]
solubility in water (solubility in water; monohydrate): highly soluble in water; also recorded: extreme solubility; also recorded: highest possible solubility in water

stability of the powder when heated [2]: remain powders
Structure (SMILES): OC[C@H]1O[C@@](CO)(O[C@H]2O[C@H](CO)[C@@H](O)[C@H](O)[C@H]2O)[C@@H](O)[C@@H]1O [sucrose, reference compound]
